Where two headings read alike, the source gives them in different places.
What was measured:
[1] = system: Staphylococcus aureus strain ATCC 6538P; test: Antibacterial screening (MIC) of compounds of Example 2, S. aureus, Mueller-Hinton broth; type: cell-based; details: for MIC: Staphylococcus aureus, ATCC6538P, read-out: Antibacterial activity μg/mL, S.a
Procedure: Antibacterial Screening Methodology for Compounds of Example 2
(§1) • All assays used the Staphylococcus aureus strain ATCC 6538P. • Assays described in Chapter 5 additionally used the vancomycin-resistant enterococci and vancomycin-sensitive enterococci strains Ef243, Ef449, Ef820 and Ef487. Culture Media • Mueller-Hinton Broth Medium (MHB): MHB (Oxoid CM405) was prepared with final concentrations of […] MgCl2 and 2 μg/mL CaCl2. Culture medium was pre-warmed for approximately 2-3 h at 37° C. before use. • Mueller-Hinton Agar Medium (MHA): MMB containing 1.5% Agar (Merck Agar 1.01614). Maintenance of Bacteria • From a thawed cryovial, the bacteria was streaked onto MHA and the plate incubated overnight at 37° C. • From this plate, 10 cryovials were prepared by looping several colonies into 0.5 mL of 20% glycerol solution. The cryovials were immediately stored at −140° C. Preparation of Seed Cultures • A cryovial was removed from −140° C. storage and thawed at room temperature. • An MHA plate was streaked with a loopful of bacterial suspension and incubated overnight at 37° C. to create a parent plate (P1). • A daughter plate (D1) was streaked from the parent plate and incubated overnight at 37° C. […] The second parent plate (P2) was used to generate two additional daughter plates using the procedure outlined above before being discarded. • Cryovials were used twice to prepare parent plates (P1 and P2) before being discarded. […] A vancomycin control set (triplicate) and a compound negative control set (triplicate) were also included on each plate (FIG. 1). • The inoculated culture medium was incubated at 37° C. for 30 min, with shaking at 130 rpm. • Using a multichannel pipette, the contents of the first row were mixed before 50 μL was transferred to the second row. The pipette tips were changed and the process repeated by 50 μL of the mixed broth solutions in the second row being transferred to the third row. This process was repeated until the last row contained either the diluted test compound or a control (vancomycin or compound-negative). […] Antibacterial Testing of Compounds of Example 2 Introduction
(§2) The specific testing procedures and protocols are outlined in the section “Antibacterial Screening Methodology for the Compounds of Example 2”.
The antibacterial activity results are measured by minimum inhibitory concentration (MIC), which is the lowest concentration of compound necessary to prevent bacterial growth.

[2] = system: E.f243; test: Antibacterial screening (MIC) of compounds of Example 2, E.f243; type: cell-based, Enterococcus faecium; details: for MIC: Enterococcus faecium, read-out: Antibacterial activity μg/mL, E.f243
Procedure: as §1, §2
(§3) Vancomycin was used as the standard/control.

[3] = system: E.f820; test: Antibacterial screening (MIC) of compounds of Example 2, E.f820; type: cell-based, Enterrococci faecium; details: for MIC: read-out: Antibacterial activity μg/mL, E.f820
Procedure: as §1, §2, §3

[4] = system: E.f449; test: Antibacterial screening (MIC) of compounds of Example 2, E.f449; type: cell-based, Enterococcus faecium; details: for MIC: Enterococcus faecium, read-out: Antibacterial activity μg/mL, E.f449
Procedure: as §1, §2, §3

[5] = system: E.f987; test: Antibacterial screening (MIC) of compounds of Example 2, E.f987; type: cell-based, Enterococcus faecium; details: for MIC: Enterococcus faecium, read-out: Antibacterial activity μg/mL, E.f987
[6] = Example 2 compounds (linear cationic peptides), S. aureus, vancomycin-susceptible strain
[7] = Example 2 compounds, enterococci strain E.f243
[8] = Example 2 compounds, fully vancomycin-resistant strain E.f820
[9] = Example 2 compounds, enterococci strain E.f449
[10] = Example 2 compounds, enterococci strain E.f987

| MIC [1, 6] [µg/mL] | MIC [2, 7] [µg/mL] | MIC [3, 8] [µg/mL] | MIC [4, 9] [µg/mL] | MIC [5, 10] [µg/mL] | SMILES | further results |
| --- | --- | --- | --- | --- | --- | --- |
| 3.9 | 31.3 | 31.2 | 31.3 | 62.5 | CCCOc1ccc2ccccc2c1-c1c(OCC(=O)N[C@H](CCCCN)C(=O)N[C@H](CCCNC(=N)N)C(=O)N[C@@H](CCC)C(=O)OCc2ccccc2)ccc2ccccc12.Cl.Cl (atropisomer, axis not shown) [Compound 141, Benzyl(2S,5R,8R)-3,6,9-triaza-8-(4-aminobutyl)-5-(3-guanidinopropyl)-4,7,10-trioxo-2-propyl-11-(2-[2′-3-(propyloxy)-{1,1′}-(S)-binaphthalen-2-yloxy])undecanoate] |  |
| 3.9 | 125 | 62.5 | 125 | 62.5 | C=CCOc1ccc2ccccc2c1-c1c(OCC(=O)N[C@H](CCCNC(=N)N)C(=O)Nc2cccc(C(=O)OC)c2)ccc2ccccc12.Cl (atropisomer, axis not shown) [Compound 156, Methyl(3R)-3-(6-(2-[2′-allyloxy-{1,1′}-(S)-binaphthalen-2-yloxy])-1,4-diaza-3-(3-guanidylpropyl)-2,5-dioxohexyl)benzoate hydrochloride] |  |
| 7.8 | 62.5 | 31.3 | 62.5 | 62.5 | C=CCOc1ccc2ccccc2c1-c1c(OCC(=O)N[C@H](CCCNC(=N)N)C(=O)Nc2cccc(C(=O)OCc3ccccc3)c2)ccc2ccccc12.Cl (atropisomer, axis not shown) [Compound 158, Benzyl(3R)-3-(6-(2-[2′-allyloxy-{1,1′}-(S)-binaphthalen-2-yloxy])-1,4-diaza-3-(3-guanidylpropyl)-2,5-dioxohexyl)benzoate hydrochloride] |  |
| 7.8 | 62.5 | 62.5 | 62.5 | 125 | C=CCOC(=O)c1cccc(NC(=O)[C@@H](CCCNC(=N)N)NC(=O)COc2ccc3ccccc3c2-c2c(OCC=C)ccc3ccccc23)c1.Cl (atropisomer, axis not shown) [Compound 160, Allyl(3R)-3-(6-(2-[2′-allyloxy-{1,1′}-(S)-binaphthalen-2-yloxy])-1,4-diaza-3-(3-guanidinopropyl)-2,5-dioxohexyl)benzoate hydrochloride] |  |
| 3.9 | > 125 | > 125 | > 125 | > 125 | C=CCOc1ccc2ccccc2c1-c1c(OCC(=O)N[C@H](CCCNC(=N)N)C(=O)Nc2cccc(C(=O)NOCc3ccccc3)c2)ccc2ccccc12.Cl (atropisomer, axis not shown) [Compound 162] |  |
| 7.8 | > 125 | > 125 | > 125 | > 125 | CCCOc1ccc2ccccc2c1-c1c(OCC(=O)N[C@H](CCCNC(=N)N)C(=O)Nc2cccc(C(=O)NO)c2)ccc2ccccc12.Cl (atropisomer, axis not shown) [Compound 164] |  |
| 31.3 | > 125 | > 125 | > 125 | > 125 | C=CC[C@H](NC(=O)[C@H](CCCCN)NC(=O)[C@H](Cc1ccc(-c2c3ccccc3cc3ccccc23)cc1)NC(C)=O)C(=O)OC.Cl [Compound 118, Methyl(2S,5S,8S)-2-allyl-5-(4-aminobutyl)-8-(4-[9-anthrecenyl]benzyl)-3,6,9-triaza-5-butylamino-4,7,10-trioxoundecanoate hydrochloride] |  |
|  |  |  |  |  | C=CC[C@H](NC(=O)[C@@H](CCCNC(=N)N)NC(=O)[C@H](NCCCC)NC(=O)COc1ccc2ccccc2c1-c1c(OCc2ccccc2)ccc2ccccc12)C(=O)OCc1ccccc1.Cl.Cl [Compound 134, Benzyl(2S,5R,8R)-2-allyl-3,6,9-triaza-11-(2-[2′-benzyloxy-{1,1′}-(S)-binaphthalen-2-yloxy])-8-(butylamino)-5-(3-guanidinopropyl)-4,7,10-trioxoundecanoate dihydrochloride] | Antibacterial activity μg/mL, S.a [1, 6]: 3.9 µg/mL; Antibacterial activity μg/mL, E.f243 [2, 7]: 62.5 µg/mL; Antibacterial activity μg/mL, E.f820 [3, 8]: 62.5 µg/mL; Antibacterial activity μg/mL, E.f449 [4, 9]: 62.5 µg/mL; Antibacterial activity μg/mL, E.f987 [5, 10]: 125 µg/mL |
| 15.6 | > 125 | > 125 | > 125 | > 125 | C=CC[C@H](NC(=O)[C@@H](CCCNC(=N)N)NC(=O)[C@@H](CCCCN)NC(=O)[C@H](Cc1ccc(-c2c3ccccc3cc3ccccc23)cc1)NC(C)=O)C(=O)OCc1ccccc1.Cl.Cl [Compound 139, Benzyl(2S,5R,8R,11S)-2-allyl-8-(4-aminobutyl)-11-(4-[9-anthracenyl]benzyl)-3,6,9,12-tetraaza-5-(3-guanidinopropyl)-4,7,10,13-tetraoxotetradecanoate] |  |
|  |  |  |  |  | C=CC[C@H](NC(=O)[C@@H](CCCNC(=N)N)NC(=O)[C@@H](CCCCN)NC(=O)[C@H](Cc1ccc(-c2cc3ccccc3c3ccccc23)cc1)NC(C)=O)C(=O)OCc1ccccc1.Cl.Cl [Compound 140, Benzyl(2S,5R,8R,11S)-2-allyl-8-(4-aminobutyl)-3,6,9,12-tetraaza-5-(3-guanidinopropyl)-4,7,10,13-tetraoxo-11-(4-[9-phenanthrenyl]benzyl)tetradecanoate] | MIC [1]: 7.8 µg/mL; MIC [2]: > 125 µg/mL; MIC [3]: > 125 µg/mL; MIC [4]: > 125 µg/mL; MIC [5]: > 125 µg/mL |
|  |  |  |  |  | C=CCOc1ccc2ccccc2c1-c1c(OCC(=O)N[C@H](CCCN)C(=O)Nc2cccc(C(=O)OC)c2)ccc2ccccc12.Cl [Compound 155, Methyl(3R)-3-(6-(2-[2′-allyloxy-{1,1′}-(S)-binaphthalen-2-yloxy])-3-(3-aminopropyl)-1,4-diaza-2,5-dioxohexyl)benzoate hydrochloride] | Antibacterial activity μg/mL, S.a [1, 6]: 7.8 µg/mL; Antibacterial activity μg/mL, E.f243 [2, 7]: >125 µg/mL; Antibacterial activity μg/mL, E.f820 [3, 8]: 125 µg/mL; Antibacterial activity μg/mL, E.f449 [4, 9]: 125 µg/mL; Antibacterial activity μg/mL, E.f987 [5, 10]: >125 µg/mL |
|  |  |  |  |  | C=CCOc1ccc2ccccc2c1-c1c(OCC(=O)N[C@H](CCCN)C(=O)Nc2cccc(C(=O)OCc3ccccc3)c2)ccc2ccccc12.Cl [Compound 157, Benzyl(3R)-3-(6-(2-[2′-allyloxy-{1,1′}-(S)-binaphthalen-2-yloxy])-3-(3-aminopropyl)-1,4-diaza-2,5-dioxohexyl)benzoate hydrochloride] | Antibacterial activity μg/mL, S.a [1, 6]: 15.6 µg/mL; Antibacterial activity μg/mL, E.f243 [2, 7]: >125 µg/mL; Antibacterial activity μg/mL, E.f820 [3, 8]: 125 µg/mL; Antibacterial activity μg/mL, E.f449 [4, 9]: 125 µg/mL; Antibacterial activity μg/mL, E.f987 [5, 10]: >125 µg/mL |
|  |  |  |  |  | C=CCOC(=O)c1cccc(NC(=O)[C@@H](CCCN)NC(=O)COc2ccc3ccccc3c2-c2c(OCC=C)ccc3ccccc23)c1.Cl [Compound 159, Allyl(3R)-3-(6-(2-[2′-allyloxy-{1,1′}-(S)-binaphthalen-2-yloxy])-3-(3-aminopropyl)-1,4-diaza-2,5-dioxohexyl)benzoate hydrochloride] | Antibacterial activity μg/mL, S.a [1, 6]: 62.5 µg/mL; Antibacterial activity μg/mL, E.f243 [2, 7]: 125 µg/mL; Antibacterial activity μg/mL, E.f820 [3, 8]: 62.5 µg/mL; Antibacterial activity μg/mL, E.f449 [4, 9]: 125 µg/mL; Antibacterial activity μg/mL, E.f987 [5, 10]: >125 µg/mL |

| SMILES | MIC [1, 6] [µg/mL] | MIC [2, 7] [µg/mL] | MIC [3, 8] [µg/mL] | MIC [4, 9] [µg/mL] | MIC [5, 10] [µg/mL] | further results |
| --- | --- | --- | --- | --- | --- | --- |
| C=CC[C@H](NC(=O)[C@H](CCCCN)NC(=O)[C@H](Cc1ccc(-c2cc3ccccc3c3ccccc23)cc1)NC(C)=O)C(=O)OC.Cl [Compound 119] | 15.6 | > 125 | > 125 | > 125 | > 125 |  |
